Results published in the NIST ThermoML archive (doi:10.1021/je050305z).

Conditions: Gas, Hot wire method

N#N [nitrogen]
Conditions	thermal conductivity [W/m/K]
235.41 K, 3405.4 kPa	0.02334
235.72 K, 3405.4 kPa	0.02333
255.55 K, 5432.8 kPa	0.026
255.7 K, 1281.1 kPa	0.02332
255.86 K, 5432.8 kPa	0.02596
256.26 K, 1281.1 kPa	0.02323
275.39 K, 5057.3 kPa	0.02674
275.41 K, 1027.7 kPa	0.02441
276.05 K, 5057.3 kPa	0.0269
276.11 K, 1027.7 kPa	0.02435
295.15 K, 1844.1 kPa	0.02606
295.25 K, 4380.8 kPa	0.02731
295.68 K, 1844.1 kPa	0.02599
295.92 K, 4380.8 kPa	0.02738
325.32 K, 716 kPa	0.02758
325.43 K, 2042.9 kPa	0.02842
326.2 K, 2042.9 kPa	0.02845
326.23 K, 4941.8 kPa	0.02961
326.39 K, 716 kPa	0.02763
